Source: PMC11952966 (2025)

Experiments:
Assay in all cases: ITC
[1] = tested on: NC423 (DNA, aptamer) CTTACGACTTGTTCTGAGGGTCAACGGTGGTGTAGTTAGTCGTAAG
[2] = tested on: NCB (DNA, aptamer) CTTACGACACAGGGCGTGGAGGAGCTGGGCTATTAGGGGTCGTAAG
[3] = tested on: NC1947 (DNA, aptamer) CTTACGACACAGGGCGTGGAGTGGCTGGGCTTCAAGGGGTCGTAAG
[4] = tested on: OM7 (DNA, aptamer) GGGACGACATCGTAGGGGCACACGCTTAACGGGCTGATGTCGTCCC
[5] = tested on: FXd (DNA, aptamer) GGGACGACGGTGTGGGGGTAGGGGGTGTGGGAAGCGGCGTCGTCCC; conditions: 23 °C; selection buffer (Supplementary Table S1); one-site model

COC(=O)[C@H]1[C@@H](OC(=O)c2ccccc2)C[C@@H]2CC[C@H]1N2C
KD [1]: 22 nM
KD [2]: 1.0 µM
KD [3]: 123 nM

COc1ccc2c3c1O[C@H]1C(=O)CC[C@@]4(O)[C@@H](C2)N(C)CC[C@]314
KD [4]: 1.4 µM

Cc1c(Nc2ncccc2C(=O)O)cccc1C(F)(F)F
KD [5]: 27.4 µM
